# Measured values from the supplement of paper PMC4862054.
# Key:
# Details in all cases: incubation time: 72 h
# HCC1937 [1] = assay: normalised response (% of control), CellTiter-Glo; higher = more viable cells (100 = DMSO, 0 = benzethonium chloride kill control)
# Procedure: (§1)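 DSRT, 72 h incubation, CellTox Green / CellTiter-Glo readout. Signal is normalised to DMSO and benzethonium chloride controls. Value is the normalised response at dose 3.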
# MDA-MB-231 [2] = assay: as above
# Procedure: as §1
# Hs578T [3] = assay: as above
# Procedure: as §1
# SK-BR-3 = assay: as above
# Procedure: as §1
# BT-549 [4] = assay: as above
# Procedure: as §1
# CAL-85-1 [5] = assay: as above
# Procedure: as §1
# BT-474 [6] = assay: as above
# Procedure: as §1
# MFM-223 [7] = assay: as above
# Procedure: as §1
# MDA-MB-468 [8] = assay: as above
# Procedure: as §1
# CAL-51 [9] = assay: as above
# Procedure: as §1
# MCF-10A [10] = assay: as above
# Procedure: as §1
# MDA-MB-453 [11] = assay: as above
# Procedure: as §1
# HCC1599 [12] = assay: as above
# Procedure: as §1
# MDA-MB-436 [13] = assay: as above
# Procedure: as §1
# CAL-148 [14] = assay: as above
# Procedure: as §1
# DU-4475 [15] = assay: as above
# Procedure: as §1
# HCC1143 [16] = assay: as above
# Procedure: as §1
# HDQ-P1 [17] = assay: as above
# Procedure: as §1
# CAL-120 [18] = assay: as above
# Procedure: as §1
# HCC1937 [19] = assay: normalised response (% of control), CellTox Green; higher = less cell death (100 = DMSO, 0 = benzethonium chloride kill control)
# In short: (§2)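 A 20 µl suspension of breast cancer cells was seeded into each well of 384-well plates containing compound at 5 concentrations in 10-fold steps over a compound-specific 10,000-fold range. After 72 h incubation, CellTox Green fluorescence (485/520 nm) was read first, and CellTiter-Glo luminescence was read after 10 min at room temperature. Each plate was normalised against 0.1 % DMSO (100) and a positive kill control (0), and each value is the normalised signal at one concentration.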
# MDA-MB-231 [20] = assay: as above
# In short: as §2
# Hs578T [21] = assay: as above
# In short: as §2
# BT-549 [22] = assay: as above
# In short: as §2
# CAL-85-1 [23] = assay: as above
# In short: as §2
# BT-474 [24] = assay: as above
# In short: as §2
# MFM-223 [25] = assay: as above
# In short: as §2
# MDA-MB-468 [26] = assay: as above
# In short: as §2
# CAL-51 [27] = assay: as above
# In short: as §2
# MDA-MB-453 [28] = assay: as above
# In short: as §2
# HCC1599 [29] = assay: as above
# In short: as §2
# MDA-MB-436 [30] = assay: as above
# In short: as §2
# CAL-148 [31] = assay: as above
# In short: as §2
# DU-4475 [32] = assay: as above
# In short: as §2
# HCC1143 [33] = assay: as above
# In short: as §2
# HDQ-P1 [34] = assay: as above
# In short: as §2
# CAL-120 [35] = assay: as above
# In short: as §2
# MCF-10A [36] = assay: as above
# In short: as §2
Structure (SMILES),normalised response (HCC1937 [1]) [%],normalised response (MDA-MB-231 [2]) [%],normalised response (Hs578T [3]) [%],normalised response (SK-BR-3) [%],normalised response (BT-549 [4]) [%],normalised response (CAL-85-1 [5]) [%],normalised response (BT-474 [6]) [%],normalised response (MFM-223 [7]) [%],normalised response (MDA-MB-468 [8]) [%],normalised response (CAL-51 [9]) [%],normalised response (MCF-10A [10]) [%],normalised response (MDA-MB-453 [11]) [%],normalised response (HCC1599 [12]) [%],normalised response (MDA-MB-436 [13]) [%],normalised response (CAL-148 [14]) [%],normalised response (DU-4475 [15]) [%],normalised response (HCC1143 [16]) [%],normalised response (HDQ-P1 [17]) [%],normalised response (CAL-120 [18]) [%],normalised response (HCC1937 [19]) [%],normalised response (MDA-MB-231 [20]) [%],normalised response (Hs578T [21]) [%],normalised response (BT-549 [22]) [%],normalised response (CAL-85-1 [23]) [%],normalised response (BT-474 [24]) [%],normalised response (MFM-223 [25]) [%],normalised response (MDA-MB-468 [26]) [%],normalised response (CAL-51 [27]) [%],normalised response (MDA-MB-453 [28]) [%],normalised response (HCC1599 [29]) [%],normalised response (MDA-MB-436 [30]) [%],normalised response (CAL-148 [31]) [%],normalised response (DU-4475 [32]) [%],normalised response (HCC1143 [33]) [%],normalised response (HDQ-P1 [34]) [%],normalised response (CAL-120 [35]) [%],normalised response (MCF-10A [36]) [%]
Cc1cc(Nc2nc(N[C@@H](C)c3ncc(F)cn3)ncc2Cl)[nH]n1 [AZD1480] (10 nM),98.9,96.1,92.2,97,102,103,99.9,96,104,114,92.3,88.9,107,106,93.5,93.9,103,97.1,98.4,92.2,95.6,109,65.3,108,98.2,96.4,136,111,98.8,99.4,73.2,66.3,96.6,106,97.8,95.6,
Cc1cn(-c2cc(NC(=O)c3ccc(C)c(Nc4nccc(-c5cccnc5)n4)c3)cc(C(F)(F)F)c2)cn1 [Nilotinib] (100 nM),95.4,94.9,97.6,96.3,115,107,99,96,103,81.9,104,96.3,106,100,106,103,94.2,105,94.4,103,110,85.3,97.5,105,102,61.4,123,96.3,85.7,105,103,93.5,102,109,68.1,85.9,99.2
Cn1cc(C2=C(c3cn(C4CCN(Cc5ccccn5)CC4)c4ccccc34)C(=O)NC2=O)c2ccccc21 [Enzastaurin] (100 nM),101,103,98.2,104,98.3,107,103,106,96.9,65,101,105,90.6,102,106,99.4,103,94,99.1,102,102,111,95.4,99.2,101,107,56.9,104,102,115,86,95,104,,114,104,104
CC(=O)[C@]1(O)Cc2c(O)c3c(c(O)c2[C@@H](O[C@H]2C[C@H](N)[C@H](O)[C@H](C)O2)C1)C(=O)c1ccccc1C3=O [Idarubicin] (10 nM),99.2,109,94.5,105,89.7,105,98.7,107,92.9,73.7,100,110,118,95.9,102,96,109,101,106,55.8,106,114,83.3,97.7,99.2,97.6,118,79.8,104,113,96,93,100,114,105,97.7,
CNC(=O)c1ccccc1Sc1ccc2c(/C=C/c3ccccn3)n[nH]c2c1 [Axitinib] (100 nM),97.8,111,98.5,103,107,109,104,90.5,93.8,81.6,100,110,101,102,112,111,102,102,104,102,105,111,113,104,102,96,132,107,110,113,,108,104,105,116,99.2,98.7
CC1(COc2ccc3c(c2)ncn3-c2ccc3cccc(N4CCC(N)CC4)c3n2)COC1 [Crenolanib] (100 nM),102,113,103,114,103,112,108,104,107,77.8,110,112,110,103,107,104,109,105,97.9,80.2,120,107,89.1,104,103,94.3,99.6,90.2,108,99.3,,82.2,103,,105,97.2,95.4
CN[C@@H](C)C(=O)N[C@H]1CN(C(=O)CC(C)C)CC[C@H]2CC[C@@H](C(=O)NC(c3ccccc3)c3ccccc3)N2C1=O [AT-406] (100 nM),103,63.9,100,99.9,47.4,86.6,54,102,103,109,111,89.8,79.1,105,102,102,103,95.9,92.5,95.2,35.2,97.2,68.8,,94.9,104,114,96.3,102,101,76.2,,104,70.4,86.4,83,101
O=[N+]([O-])c1ccc2c(c1)S(=O)(=O)C=C2 [Stattic] (500 nM),94.3,90.8,96.5,106,85.3,99.5,94.5,96.8,45.6,99,106,85.2,103,100,98.3,102,104,100,98.2,,107,89.2,102,98.8,101,96.9,133,108,103,95.4,95.3,102,107,81.2,104,99.8,106
C=CCn1c(=O)c2cnc(Nc3ccc(N4CCN(C)CC4)cc3)nc2n1-c1cccc(C(C)(C)O)n1 [MK1775] (100 nM),90.7,81.5,87.7,79,91.1,90.3,87.1,82.4,89.2,94.7,73.3,67.6,81.2,69.4,73.4,93.4,89.2,74.6,79,,70.8,66.1,105,77.2,95.4,97.1,76.1,82.8,96.5,90,63.2,73.4,94.9,98.6,98.5,97.8,84.2
